Experiments:
rat NAAA = target: T1, rat NAAA (Rattus norvegicus, UniProt Q5KTC7); assay: NAAA enzymatic assay (recombinant rNAAA protein, LC/MS); type: biochemical; conditions: IC50 ± S.E.M., triplicate; 25 µM heptadecenoylethanolamide, pH 5.0;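 also: reaction product measured by LC/MS using positive APCI ionization with MRM monitoring, quantified from chromatographic peak areas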
T1 construct: made in house; host or cells: HEK293 cells stably overexpressing rat NAAA (HEK293-rNAAA), a gift from D. Piomelli; crude 800 x g supernatant of sonicated cells
T1 sequence (Q5KTC7 34-362): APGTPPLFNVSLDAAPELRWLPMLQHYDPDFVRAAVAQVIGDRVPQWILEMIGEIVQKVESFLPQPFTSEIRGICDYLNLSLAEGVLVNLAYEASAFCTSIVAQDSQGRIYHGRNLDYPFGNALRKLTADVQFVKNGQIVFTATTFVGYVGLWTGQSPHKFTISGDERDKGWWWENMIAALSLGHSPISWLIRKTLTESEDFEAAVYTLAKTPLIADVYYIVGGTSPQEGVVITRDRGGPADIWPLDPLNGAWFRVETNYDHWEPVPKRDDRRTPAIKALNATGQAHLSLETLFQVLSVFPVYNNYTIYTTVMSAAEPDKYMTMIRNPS
Method: HEK293-rNAAA or HEK293-rFAAH cells were harvested, washed with PBS, sonicated in 20 mM Tris-HCl (pH 7.5) containing 0.32 M sucrose, and centrifuged at 800 × g for 15 min at 4°C. The supernatants were collected and protein concentrations were measured by BCA protein assay kit (Pierce, Shanghai, China). […] The reactions were terminated by adding 0.2 mL methanol containing 1 nmol heptadecanoic acid and analyzed in LC/MS.
We use an Agilent 1200-LC system coupled to a 3200Q TRAP-MS detector equipped with an ESI interface (Agilent Technologies, Shanghai, China). […] The column temperature was set at 40°C. […] Mass spectrometer (MS) detection was ionized by positive-ion atmospheric pressure chemical ionization mode (APCI^+) and monitored in MRM mode. […] Quantifications were calculated at chromatographic peak areas by using Analyst® version 1.4.1. software (Applied Biosystems).

[1] = target: T2, monoacylglycerol lipase (MGL) (Homo sapiens, UniProt Q99685); assay: MGL activity assay (Figure S1); type: biochemical; conditions: 100 µM (Figure S1)
T2 sequence (Q99685 1-303): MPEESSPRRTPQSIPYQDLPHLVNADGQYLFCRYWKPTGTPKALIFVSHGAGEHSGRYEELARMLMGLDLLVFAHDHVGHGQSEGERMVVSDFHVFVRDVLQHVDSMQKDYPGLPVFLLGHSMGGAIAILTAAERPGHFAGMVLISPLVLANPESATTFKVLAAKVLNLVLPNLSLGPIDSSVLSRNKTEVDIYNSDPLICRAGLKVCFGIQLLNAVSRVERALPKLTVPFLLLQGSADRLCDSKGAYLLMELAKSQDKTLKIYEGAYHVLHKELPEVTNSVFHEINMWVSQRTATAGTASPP
Method: Supplementary file pone.0043023.s001.pdf: Figure S1 Effect of vehicle (open bar) and compound 16 (100 µM, closed bars) on the activity of NAAA, FAAH, MGL, and ASAH. ***, p<0.001, one-way ANOVA, n = 3. (PDF) Click here for additional data file.

RAW264.7 cells = system: RAW264.7 cells
Method: HEK293 cells overexpressing rat NAAA (HEK293-rNAAA) and rat FAAH (HEK293-rFAAH) were kind gifts from Dr. Daniele Piomelli in University of California, Irvine. The stable-overexpressing cell lines were maintained in Dulbecco’s Modified Eagle Medium (DMEM, Hyclone, Beijing, China) supplemented with 10% FBS (Gibco®, Shanghai, China) containing 0.3 mg/mL G418. Mouse macrophage cells RAW264.7 and Human Embryonic Kidney cell HEK293 cells were purchased from American Type Culture Collection (ATCC, Beijing, China) and maintained in DMEM supplemented with 10% FBS in humidified 5% CO2 atmosphere at 37°C. RAW264.7 cells were plated and cultured overnight until 80% confluence and then incubated with a series of compound 16 of different concentrations for 30 min before challenged by LPS.
The column temperature was set at 40°C.

NAAA [2] = target: T3, NAAA (Rattus norvegicus, UniProt Q5KTC7); assay: Rapid dilution NAAA assay; type: biochemical; design: made in house; host or cells: HEK293 cells stably overexpressing rat NAAA (HEK293-rNAAA), a gift from D. Piomelli; crude 800 x g supernatant of sonicated cells; conditions: pre-incubation 10-fold IC50, 100-fold dilution
T3 sequence (Q5KTC7 34-362): T1 sequence (Q5KTC7 34-362)
Method: Rapid dilution assay was performed as previously described. Briefly, samples containing 100-fold concentrated rNAAA recombinant protein were pre-incubated with 10-fold the IC50-equivalent concentration of compound 16 or vehicle (1% DMSO) for 10 min at 37°C. Samples were then diluted 100-fold with assay buffer containing substrate to initiate reactions, and the time course of product formation was measured by LC/MS.

NAAA [3] = target: T3, NAAA; assay: Dialysis NAAA assay; type: biochemical; design: made in house; host or cells: HEK293 cells stably overexpressing rat NAAA (HEK293-rNAAA), a gift from D. Piomelli; crude 800 x g supernatant of sonicated cells; conditions: 8 hr dialysis
Method: Dialysis assay was performed using Slide-A-Lyzer Dialysis Cassettes (Pierce, Shanghai, China). Briefly, 2 mg NAAA protein was incubated with compound 16 or dimethyl sulfoxide (DMSO) in 4 mL Tris-HCl buffer (50 mM, pH 5.0) for 10 minutes at 37°C. Mixed reaction solution was loaded onto a dialysis cartridge using a syringe and incubated in Tris-HCl buffer (50 mM, pH 5.0) at 4°C for 8 h. The samples were removed from Dialysis Cassettes by syringes for NAAA enzymatic assay.

For `O=C(CCc1ccc(-c2ccccc2)cc1)N1CCCC1` [Compound 16, 1–(2–Biphenyl–4–yl)ethyl–carbonyl pyrrolidine], the IC50 (rat NAAA) was 2.12 ± 0.41 µM, the “inhibitory effect on MGL” value [1] was “no inhibitory effect” and the “cellular PEA levels, LPS+compound” value (RAW264.7 cells; RAW264.7, 0.5 µg/mL LPS, LPS alone 0.67±0.12) was 1.41±0.17 pmol/mg protein. For the same compound, the “cellular PEA levels, compound alone” value (RAW264.7 cells; RAW264.7, no LPS, vehicle 1.23±0.07) was 1.30±0.23 pmol/mg protein, the “NAAA activity after rapid dilution of inhibitor-NAAA complex” value (NAAA [2]) was “almost completely restored the NAAA activity” and the “NAAA activity after dialysis of inhibitor-NAAA complex” value (NAAA [3]) was “almost completely restored the NAAA activity”.

Source: paper PMC3423427, “Design and Synthesis of Potent N-Acylethanolamine-hydrolyzing Acid Amidase (NAAA) Inhibitor as Anti-Inflammatory Compounds” (PLoS ONE, 2012)
